# Patent US10800816B2 (Baxalta GmbH, priority 2012, dated 2020)
# Experiments:
# TFPI = assay: IC50 ELISA | Mean IC50 [nM]
# From the text: Table printed on a drawing sheet, FIGURE 78Z
# Head of the field: IC50 ELISA | Mean IC50 [nM]
# First copying reader's note: Continued table: the first body row (45.67) belongs to a compound on the preceding sheet, the last row probably continues on the next sheet, and cells with several values list single replicates.
# [1] = Pharmacokinetics in C57Bl6 mice; assay type: in vivo, mouse; conditions: 1 mg/kg peptide content, 1 mg/kg; for Bioavailability [%] (s.c.): s.c. AUC vs i.v. AUC
compound,measurement,setting,value
Ac-FQSKpNVHVDGYF-C(ME-400MA)-RL-Aib-AKL-NH2 [JBT00002404],24 h Mouse Plasma Stability | Mean Remaining [%],FIGURE 78P,93.20%
(Hex-FQSKp-Cys(Acm)-VH-Tle-DaYFERL-Aib-AKLC- NH2)2-M2TriO [JBT00002533],IC50,TFPI,3.1 nM
CC(C)C[C@@H]1NC(=O)[C@H](CCCCN)NC(=O)[C@H](C)NC(=O)C(C)(C)NC(=O)[C@H](CC(C)C)NC(=O)[C@H](CCCNC(=N)N)NC(=O)[C@H](CCC(=O)O)NC(=O)[C@H](Cc2ccccc2)NC(=O)[C@H](Cc2ccc(O)cc2)NC(=O)CNC(=O)[C@H](CC(=O)O)NC(=O)[C@H](C(C)C)NC(=O)[C@H](Cc2c[nH]cn2)NC(=O)[C@H](C(C)C)NC(=O)[C@H](CC(N)=O)NC(=O)[C@H]2CCCN2C(=O)[C@H](CCCCN)NC(=O)[C@H](CO)NC(=O)[C@H](CCC(N)=O)NC(=O)[C@H](Cc2ccccc2)NC(=O)CCOCCOCCOCCOCCOCCNC1=O [JBT00002405],24 h Human Plasma Stability | Mean Remaining [%],FIGURE 78P,55.90%
Ac-FQSKp-C(ME-400MA)-VHVDGYFERL-Aib-AKL-NH2 [JBT00002402],24 h Human Plasma Stability | Mean Remaining [%],FIGURE 78O,75.30%
same,24 h Mouse Plasma Stability | Mean Remaining [%],FIGURE 78O,99.70%
CCSC1CC(=O)N(CCC(=O)NCCCOCCOCCOCCCNC(=O)CCC(=O)NCCCC[C@H](NC(=O)[C@H](CC(C)C)NC(=O)[C@H](CCCCN)NC(=O)[C@H](C)NC(=O)C(C)(C)NC(=O)[C@H](CC(C)C)NC(=O)[C@H](CCCNC(=N)N)NC(=O)[C@H](CCC(=O)O)NC(=O)[C@H](Cc2ccccc2)NC(=O)[C@H](Cc2ccc(O)cc2)NC(=O)CNC(=O)[C@H](CC(=O)O)NC(=O)[C@@H](NC(=O)[C@H](Cc2c[nH]cn2)NC(=O)[C@@H](NC(=O)[C@H](CC(N)=O)NC(=O)[C@H]2CCCN2C(=O)[C@H](CCCCN)NC(=O)[C@H](CO)NC(=O)[C@H](CCC(N)=O)NC(=O)[C@H](Cc2ccccc2)NC(C)=O)C(C)C)C(C)C)C(N)=O)C1=O (some centres unmarked) [JBT00002400],24 h Human Plasma Stability | Mean Remaining [%],FIGURE 78O,60.00%
"Ac-FQSKpNVHVDGYFERL-Aib-AKLC(PEG)-NH2 [JBT2328] (FQSKPNVHVDGYFERLXAKLC; acetyl, D-Pro, Aib, Cys-PEG 29.1 kD, amide; MOD_RES (1)..(1): N-terminal acetylation; MOD_RES (5)..(5): D-Pro; MOD_RES (17)..(17): Xaa is 2-amino-isobutyric acid; MOD_RES (21)..(21): Cys-PEG; MOD_RES (21)..(21): C-terminal amidation) [PEG 29.1 kD, linear maleimide PEG]",HL_λ_z [h] (intravenous),[1],10.1 h
same,Bioavailability [%] (s.c.),[1],52.0%
"Ac-FQSKpNVHVDGYFERL-Aib-AKLC(PEG)-NH2 [JBT2327] (FQSKPNVHVDGYFERLXAKLC; acetyl, D-Pro, Aib, Cys-PEG 21.0 kD, amide; MOD_RES (1)..(1): N-terminal acetylation; MOD_RES (5)..(5): D-Pro; MOD_RES (17)..(17): Xaa is 2-amino-isobutyric acid; MOD_RES (21)..(21): Cys-PEG; MOD_RES (21)..(21): C-terminal amidation) [PEG 21.0 kD, linear maleimide PEG]",HL_λ_z [h] (intravenous),[1],4.2 h
same,Bioavailability [%] (s.c.),[1],89.7%
"CCN1C(=O)CC(SC[C@H](NC(=O)[C@@H](NC(=O)[C@H](Cc2c[nH]cn2)NC(=O)[C@@H](NC(=O)[C@H](CC(N)=O)NC(=O)[C@H]2CCCN2C(=O)[C@H](CCCCN)NC(=O)[C@H](CO)NC(=O)[C@H](CCC(N)=O)NC(=O)[C@H](Cc2ccccc2)NC(C)=O)C(C)C)C(C)C)C(=O)NCC(=O)N[C@@H](Cc2ccc(O)cc2)C(=O)N[C@@H](Cc2ccccc2)C(=O)N[C@@H](CCC(=O)O)C(=O)N[C@@H](CCCNC(=N)N)C(=O)N[C@@H](CC(C)C)C(=O)NC(C)(C)C(=O)N[C@@H](C)C(=O)N[C@@H](CCCCN)C(=O)N[C@@H](CC(C)C)C(N)=O)C1=O (some centres unmarked) [JBT00002398, Ac-FQSKpNVHV-C(NEM)-GYFERL-Aib-AKL-NH2]",24 h Human Plasma Stability | Mean Remaining [%],FIGURE 78O,39.05%
same,24 h Mouse Plasma Stability | Mean Remaining [%],FIGURE 78O,21.60%
Hex-FQSKp-Cys(Acm)-VH-Tle-DaYFERL-Aib-AKL-Ttds- K(Ttds-Myr)--NH2 [JBT00002539],IC50,TFPI,10.1 nM
Ac-FQSKpNVHVDGYFERL-Aib-AKLK(Ttds-Maleimid-HSA)- NH2 [JBT00002410],24 h Mouse Plasma Stability | Mean Remaining [%],FIGURE 78P,79.15%
Ac-FQSKpNVHV-C(ME-400MA)-GYFERL-Aib-AKL-NH2 [JBT00002403],24 h Human Plasma Stability | Mean Remaining [%],FIGURE 78O,96.70%
same,24 h Mouse Plasma Stability | Mean Remaining [%],FIGURE 78O,92.50%
"Ac-FQSKpNVHVDGYFERL-Aib-AKLC(PEG)-NH2 [JBT2326] (FQSKPNVHVDGYFERLXAKLC; acetyl, D-Pro, Aib, Cys-PEG 12.1 kD, amide; MOD_RES (1)..(1): N-terminal acetylation; MOD_RES (5)..(5): D-Pro; MOD_RES (17)..(17): Xaa is 2-amino-isobutyric acid; MOD_RES (21)..(21): Cys-PEG; MOD_RES (21)..(21): C-terminal amidation)",HL_λ_z [h] (intravenous),[1],0.35 h
same,Bioavailability [%] (s.c.),[1],76.0%
Hex-FQSKp-Cys(Acm)-VH-Tle-DaYFERL-Aib-AKLK(Ttds- gGlu-Myr)--NH2 [JBT00002541],IC50,TFPI,24.3 nM
CCN1C(=O)CC(SC[C@H](NC(=O)[C@H](Cc2ccccc2)NC(=O)[C@H](Cc2ccc(O)cc2)NC(=O)CNC(=O)[C@H](CC(=O)O)NC(=O)[C@@H](NC(=O)[C@H](Cc2c[nH]cn2)NC(=O)[C@@H](NC(=O)[C@H](CC(N)=O)NC(=O)[C@H]2CCCN2C(=O)[C@H](CCCCN)NC(=O)[C@H](CO)NC(=O)[C@H](CCC(N)=O)NC(=O)[C@H](Cc2ccccc2)NC(C)=O)C(C)C)C(C)C)C(=O)N[C@@H](CCCNC(=N)N)C(=O)N[C@@H](CC(C)C)C(=O)NC(C)(C)C(=O)N[C@@H](C)C(=O)N[C@@H](CCCCN)C(=O)N[C@@H](CC(C)C)C(N)=O)C1=O (some centres unmarked) [JBT00002399],24 h Human Plasma Stability | Mean Remaining [%],FIGURE 78O,10.70%
CCN1C(=O)CC(SC[C@H](NC(=O)[C@H]2CCCN2C(=O)[C@H](CCCCN)NC(=O)[C@H](CO)NC(=O)[C@H](CCC(N)=O)NC(=O)[C@H](Cc2ccccc2)NC(C)=O)C(=O)N[C@H](C(=O)N[C@@H](Cc2c[nH]cn2)C(=O)N[C@H](C(=O)N[C@@H](CC(=O)O)C(=O)NCC(=O)N[C@@H](Cc2ccc(O)cc2)C(=O)N[C@@H](Cc2ccccc2)C(=O)N[C@@H](CCC(=O)O)C(=O)N[C@@H](CCCNC(=N)N)C(=O)N[C@@H](CC(C)C)C(=O)NC(C)(C)C(=O)N[C@@H](C)C(=O)N[C@@H](CCCCN)C(=O)N[C@@H](CC(C)C)C(N)=O)C(C)C)C(C)C)C1=O (some centres unmarked) [JBT00002397],24 h Human Plasma Stability | Mean Remaining [%],FIGURE 78O,10.60%
"Ac-FQSKpNVHVDGYFERL-Aib-AKLC(PEG)-NH2 [JBT2325] (FQSKPNVHVDGYFERLXAKLC; acetyl, D-Pro, Aib, Cys-PEG 5.3 kD, amide; MOD_RES (1)..(1): N-terminal acetylation; MOD_RES (5)..(5): D-Pro; MOD_RES (17)..(17): Xaa is 2-amino-isobutyric acid; MOD_RES (21)..(21): Cys-PEG; MOD_RES (21)..(21): C-terminal amidation) [PEG 5.3 kD, linear maleimide PEG]",HL_λ_z [h] (intravenous),[1],0.16 h
same,Bioavailability [%] (s.c.),[1],58.2%
Hex-FQSKp-Cys(Acm)-VH-Tle-DaYFERL-Aib-AKLK(Ttds- Ac)--NH2 [JBT00002540],IC50,TFPI,3.99 nM
Hex-FQSKp-Cys(Acm)-VH-Tle-DaYFERL-Aib-AK-OH [JBT00002543],IC50,TFPI,71.1 nM
Hex-FQSKp-Cys(Acm)-VH-Tle-DaYFERL-Aib-AKLC(ME- 400MA)-NH2 [JBT00002534],IC50,TFPI,15.3 nM
